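Assay format: 96-well plates, 48-hour exposure. At the GI50, growth is halved. TGI marks complete inhibition of growth.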
Tests used:
Test in all cases: growth of human tumour cells (NCI), 48 h
A549 NSCLC = tested on: A549 NSCLC
EKVX NSCLC = tested on: EKVX NSCLC
HOP-62 NSCLC = tested on: HOP-62 NSCLC
K-562 leukemia = tested on: K-562 leukemia
MALME-3M melanoma = tested on: MALME-3M melanoma
NCI-H522 lung = tested on: NCI-H522 lung
RXF 393 renal = tested on: RXF 393 renal
SK-MEL-5 melanoma = tested on: SK-MEL-5 melanoma
SN12C renal = tested on: SN12C renal
SW-620 colon = tested on: SW-620 colon

Row | Compound | GI50 (A549 NSCLC) [µM] | TGI (A549 NSCLC) [µM] | GI50 (EKVX NSCLC) [µM] | TGI (EKVX NSCLC) [µM] | GI50 (HOP-62 NSCLC) [µM] | TGI (HOP-62 NSCLC) [µM] | GI50 (K-562 leukemia) [µM] | TGI (K-562 leukemia) [µM] | GI50 (MALME-3M melanoma) [µM] | TGI (MALME-3M melanoma) [µM] | GI50 (NCI-H522 lung) [µM] | TGI (NCI-H522 lung) [µM] | GI50 (RXF 393 renal) [µM] | TGI (RXF 393 renal) [µM] | GI50 (SK-MEL-5 melanoma) [µM] | TGI (SK-MEL-5 melanoma) [µM] | GI50 (SN12C renal) [µM] | TGI (SN12C renal) [µM] | GI50 (SW-620 colon) [µM] | TGI (SW-620 colon) [µM]
1 | O=C1c2ccccc2C(=O)c2c1oc1c2c(=O)[nH]c2ccc(Cl)cc21 | 1.03 | 2.92 | 0.249 | 2.44 | 0.202 | 0.643 | 0.375 | 2.01 | 0.226 | 0.441 | 0.318 | 1.4 | 0.21 | 0.577 | 0.305 | 1.21 | 0.198 | 0.463 | 0.332 | 1.01
2 | C[N+](C)(C)C1CC([N+](C)(C)C)C2c3ccccc3C21 (stereo not given) |  | > 100 |  | > 100 |  | > 100 |  | > 100 |  | > 100 |  | > 100 |  | > 100 |  | > 100 |  | > 100 |  | > 100
3 | Cc1ccc2[nH]c(C(=O)NN3C(=O)C(C)SC34CCC(C)CC4)c(-c3ccccc3)c2c1 (stereo not given) | 14.3 | 31.8 | 19.6 | 56.1 | 18.1 | 37.7 | 16.2 | 61.9 | 17 | 33.4 | 13 | 31.1 | 13.7 | 30.1 | 18.4 | 36.3 | 13 | 28 | 31.4 | 82.6
4 | N#CC(C(=O)CCC(=O)Nc1cccc(C(F)(F)F)c1)c1ccccc1 (stereo not given) |  | > 100 |  | > 100 |  | > 100 |  | > 100 |  | > 100 |  | > 100 |  | > 100 |  | > 100 |  | > 100 |  | > 100
5 | COC(=O)C1=C(C(=O)ON)[C@@H]2C=C[C@@]1([C@@H](Cc1ccccc1)Nc1ccccc1)O2 | 16.9 | 32.2 | 1.83 | 4.16 | 16.9 | 32.4 | 2.46 | 8.72 | 1.69 | 3.2 | 1.48 | 3.41 | 1.67 | 3.04 | 14.7 | 27.8 | 1.87 | 3.69 | 1.8 | 3.51
6 | CCOC(=O)Nc1ccc2c(c1)C(=O)N(CC)c1ccccc1O2 | 0.145 | > 100 | 0.264 | > 100 | 0.128 | > 100 | 0.0484 | > 100 | 31.8 | > 100 | 0.0797 | 1.09 | 0.0277 | 54.9 | 0.106 | 2.33 | 0.449 | > 100 | 0.0632 | > 100

From PubChem BioAssay (NCI)
